Reference: patent publication US20240052421A1, “METHOD OF IDENTIFYING AND TREATING MITOCHONDRIAL SUBTYPE TUMORS” (The Trustees of Columbia University in the City of New York, priority 2020, published 2024)

Legend:
Format in all cases: cell-based, human
GBM PDCs = experiment: Viability of GBM PDCs (MTC and GPM) treated with inhibitors of glycolysis; settings: nine MTC and nine GPM PDCs, 72 h treatment
Description: FIGS. 9A-K show MTC PDCs are distinctly sensitive to mitochondrial inhibition. […] Data are mean±s.d. of n≥3 replicates for each PDC from one representative experiment. […] Middle: correlation analysis of MTC (blue) and GPM (red) activity in PDCs (n=25 MTC PDCs and n=21 GPM PDCs; Spearman's correlation, p=−0.51, P=0.0003). Bottom: enrichment of fCNV gain and loss of mitochondrial and glycolytic-related genes in MTC PDCs (n=25) and GPM PDCs (n=21). The number of genes amplified/deleted in each tumor is color coded (amplifications, red to white; deletions, blue to white). FIGS. 9F and G show viability curves of nine MTC PDCs and nine GPM PDCs each derived from an independent patient treated with either FX-11 (F) or DEAB (G). Data are mean±s.d. from n≥4 replicates for each PDC from one representative experiment. […] Data are mean±s.d. of one representative experiment assessed by n=30 replicates for each PDC; **P=0.0022. […] In all experiments, significance was evaluated by two-tailed t-test, unequal variance. […]
(§1) Compound treatment of PDCs. […] Viability was determined using CellTiterGlo assay reagent (Promega, no. G7570) and the GloMax-Multi+Microplate Multimode Reader (Promega).

MTC PDCs = experiment: Viability of MTC patient-derived cells (PDCs) after compound treatment, CellTiterGlo; settings: 13 MTC PDCs, 72 h treatment, serial dilutions
Description: (§2) FIGS. 9A-K show MTC PDCs are distinctly sensitive to mitochondrial inhibition. […] Data are mean±s.d. of n≥3 replicates for each PDC from one representative experiment. […] Middle: correlation analysis of MTC (blue) and GPM (red) activity in PDCs (n=25 MTC PDCs and n=21 GPM PDCs; Spearman's correlation, p=−0.51, P=0.0003). Bottom: enrichment of fCNV gain and loss of mitochondrial and glycolytic-related genes in MTC PDCs (n=25) and GPM PDCs (n=21). The number of genes amplified/deleted in each tumor is color coded (amplifications, red to white; deletions, blue to white). FIGS. 9F and G show viability curves of nine MTC PDCs and nine GPM PDCs each derived from an independent patient treated with either FX-11 (F) or DEAB (G). Data are mean±s.d. from n≥4 replicates for each PDC from one representative experiment. […] Representative MRs with differential activity (n=304 tumors, n=2,799 cells from dataset 1, n=9,652 cells from dataset 2 and n=4,916 cells from dataset 3; two-sided MWW test, FDR<0.01) in TCGA and at least two out of three single-cell datasets are shown (two-sided MWW-GST test, log it(NES)>0.58, FDR<0.01). Nodes represent MRs and target genes, while lines represent interactions. […] Data are mean±s.d. from one representative experiment including n=3 independent infections for each PDC; **P=0.0010 and 0.0013 for PDC-002 shRNA1 and shRNA2 versus vector, respectively; **P=0.0030 and 0.0023 for PDC-026 shRNA1 and shRNA2 versus vector, respectively; *P=0.0285 for PDC-078 shRNA1 versus vector; *P=0.0142 for PDC-021 shRNA1 versus vector. […] Data are mean±s.d. of one representative experiment assessed by n=30 replicates for each PDC; **P=0.0022. […] Data are mean±s.d. of n=3 independent experiments for each PDC, each performed in triplicate. Bars on the right-hand side of the graph indicate mean±s.e.m. of values observed in the two sets of PDCs; n=7 MTC PDCs and n=7 GPM PDCs, each derived from an independent patient; ***P=0.00006. Experiments in A-D, F, G, I and J were repeated two times with similar results. In all experiments, significance was evaluated by two-tailed t-test, unequal variance.
(§3) Therefore, we tested the sensitivity of 13 MTC and ten GPM PDCs to compounds that interfere with OXPHOS and mitochondrial metabolism. […] Conversely, GPM PDCs were resistant to all four compounds (FIG. 9A-D). […] Furthermore, the complementary fCN gains and losses of MTC and GPM gene sets robustly correlated with mitochondrial inhibitor sensitivity score (FIG. 9E). Treatment of GBM PDCs with inhibitors of glycolysis (DEAB and FX-11)^51 had no effect regardless of the metabolic class of PDC (FIGS. 9F,G).
as §1

GPM PDCs = experiment: Viability of GPM patient-derived cells (PDCs) after compound treatment, CellTiterGlo; settings: ten GPM PDCs, 72 h treatment, serial dilutions
Description: as §2, §3, §1

mitochondrial PDOs = experiment: Viability of mitochondrial GBM patient-derived organoids (PDOs), serial dilution of mitochondrial inhibitors
Procedure: (§4) The objective of the study is to test the activity of IM-156, a novel mitochondrial inhibitor currently in clinical testing, in vitro in 25 GBM-PDO organoids previously classified molecularly as mitochondrial (MTC, 13 organoids) or glycolytic/plurimetabolic (GPM, 12 organoids) plus 2 GBM-PDO harboring a FGFR3-TACC3 (F3T3) fusion.
(§5) Using IM-156 (0 μM -15 μM, 1/3 dilution, 7 points and 0-45 μM, 1/3 dilution, 10 points), […], and 2 FGFR3-TACC3 positive GBM PDOs were tested. Seventy-two hours later viability was assessed and the half-maximal inhibitory concentration was calculated. The activity (IC50) of IM-156 was compared with IACS-010759, Metformin, Tigecycline, and Menadione, 4 inhibitors of mitochondrial activity/respiration. […] FGFR3-TACC3 fusion expressing cells had been previously characterized as mitochondrial GBM.

[1] = test system: glycolytic/plurimetabolic PDOs; experiment: Viability of glycolytic/plurimetabolic GBM PDOs, serial dilution of mitochondrial inhibitors
Procedure: as §4, §5

FGFR3-TACC3 PDOs = experiment: Viability of FGFR3-TACC3 positive GBM PDOs, serial dilution of mitochondrial inhibitors
Procedure: as §4, §5

[2] = 15 μM as highest concentration, 72 h

`CCN(CC)c1ccc(C=O)cc1` [DEAB] was tested, and the “effect on viability of GBM PDCs regardless of metabolic class” value (GBM PDCs) was “no effect”.
With `CC1=CC(=O)c2ccccc2C1=O` [menadione] the “effect on viability of MTC PDCs” value (MTC PDCs) was “reduced the viability” and the “effect on viability of GPM PDCs” value (GPM PDCs) was “resistant”.
`NC(=Nc1ccc(OC(F)(F)F)cc1)N=C(N)N1CCCC1` [IM-156] was tested, and the “number of mitochondrial PDOs in which the drug was effective” value (mitochondrial PDOs; [2]) was 12 out of 14, the “effectiveness in MTC models as opposed to GPM subtype” value (mitochondrial PDOs; MTC versus GPM patient-derived tumor models) was “significantly more effective” and the IC50 (mitochondrial PDOs; mitochondrial PDOs, 15 μM as highest concentration, viability at 72 h, read-out: Median IC50) was 6.38 µM. For the same compound, the “number of glycolytic/plurimetabolic PDOs in which the drug was effective” value [1, 2] was 2 out of 10, the “change in sensitivity of glycolytic/plurimetabolic GBM PDOs on increasing maximum concentration” value ([1]; maximum concentration raised from 15 μM to 45 μM) was “significant increase in sensitivity” and the “number of FGFR3-TACC3 PDOs in which the drug was effective” value (FGFR3-TACC3 PDOs; [2]) was 2 out of 2. For the same compound, the “sensitivity of FGFR3-TACC3 fusion expressing cells” value (FGFR3-TACC3 PDOs; 2 FGFR3-TACC3 positive GBM PDOs) was “distinct sensitivity”.
With `CN(C)c1cc(NC(=O)CNC(C)(C)C)c(O)c2c1C[C@H]1C[C@H]3[C@H](N(C)C)C(O)=C(C(N)=O)C(=O)[C@@]3(O)C(O)=C1C2=O` [tigecycline] the “effect on viability of MTC PDCs” value (MTC PDCs) was “reduced the viability” and the “effect on viability of GPM PDCs” value (GPM PDCs) was “resistant”.
For `CCCc1c(O)c(O)c(C(=O)O)c2cc(Cc3ccccc3)c(C)cc12` [FX-11], the “effect on viability of GBM PDCs regardless of metabolic class” value (GBM PDCs) was “no effect”.
In the case of `CN(C)C(=N)N=C(N)N` [metformin], the “effect on viability of MTC PDCs” value (MTC PDCs) is reported as “reduced the viability” and the “effect on viability of GPM PDCs” value (GPM PDCs) is reported as “resistant”.
In the case of `Cc1nc(-c2nc(-c3ccc(OC(F)(F)F)cc3)no2)nn1Cc1cccc(N2CCC(S(C)(=O)=O)CC2)c1` [IACS-010759], the “effect on viability of MTC PDCs” value (MTC PDCs) is reported as “reduced the viability” and the “effect on viability of GPM PDCs” value (GPM PDCs) is reported as “resistant”.
